Assay results reported in patent US20200237742A1, “Serdexmethylphenidate Conjugates, Compositions And Methods Of Use Thereof” (priority 2018, published 2020).

Test system: healthy, nondependent, recreational stimulant users with intranasal insufflation experience
Test: Intranasal study, treatment-emergent adverse events (Table 54)
Experimental: The study consisted of a Screening Period, an in-clinic Drug Discrimination Phase, a Treatment Phase, and a Follow-Up Visit.
All subjects were required to fast for at least 8 hours prior to each dose of study drug until approximately 4 hours after each dose. Abuse potential measures and pharmacokinetic samples were collected at different times after the administration of study drug. Subjects who successfully completed the Drug Discrimination Phase and who qualified for the Treatment Phase remained as inpatients to enter the Treatment Phase.

[1] = intranasal, d-MPH HCl 40 mg, SDX Cl 80 mg, N = 46 each

Compound: COC(=O)[C@H](c1ccccc1)[C@H]1CCCCN1C(=O)OC[n+]1cccc(C(=O)N[C@@H](CO)C(=O)O)c1.[Cl-] [serdexmethylphenidate chloride]
- respiratory, thoracic, and eye disorders (nasal discomfort, nasal congestion, rhinorrhoea, epistaxis, increased lacrimation) (intranasal SDX Cl compared to intranasal d-MPH HCl): occurred more often
- Abdominal distension, number of occurrences [1]: 1 E
- Abdominal distension, subjects with event [1]: 1 (2.2%) n (%)
- Abdominal pain, number of occurrences [1]: 2 E
- Abdominal pain, subjects with event [1]: 2 (4.3%) n (%)
- Agitation, number of occurrences [1]: 1 E
- Agitation, subjects with event [1]: 1 (2.2%) n (%)
- Anxiety, number of occurrences [1]: 1 E
- Anxiety, subjects with event [1]: 1 (2.2%) n (%)
- Any TEAE, number of occurrences [1]: 102 E
- Any TEAE, subjects with event [1]: 36 (78.3%) n (%)
- Arthralgia, number of occurrences [1]: 1 E
- Arthralgia, subjects with event [1]: 1 (2.2%) n (%)
- Asthenia, number of occurrences [1]: 1 E
- Asthenia, subjects with event [1]: 1 (2.2%) n (%)
- Back pain, subjects with event [1]: 0 n (%)
- Blood pressure diastolic increased, subjects with event [1]: 0 n (%)
- Bruxism, subjects with event [1]: 0 n (%)
- Cardiac disorders, number of occurrences [1]: 2 E
- Cardiac disorders, subjects with event [1]: 2 (4.3%) n (%)
- Catheter site haematoma, number of occurrences [1]: 1 E
- Catheter site haematoma, subjects with event [1]: 1 (2.2%) n (%)
- Catheter site swelling, number of occurrences [1]: 1 E
- Catheter site swelling, subjects with event [1]: 1 (2.2%) n (%)
- Change in sustained attention, subjects with event [1]: 0 n (%)
- Chest discomfort, subjects with event [1]: 0 n (%)
- Chest pain, number of occurrences [1]: 1 E
- Chest pain, subjects with event [1]: 1 (2.2%) n (%)
- Claustrophobia, number of occurrences [1]: 1 E
- Claustrophobia, subjects with event [1]: 1 (2.2%) n (%)
- Cough, number of occurrences [1]: 3 E
- Cough, subjects with event [1]: 3 (6.5%) n (%)
- Decreased appetite, subjects with event [1]: 0 n (%)
- Defaecation urgency, subjects with event [1]: 0 n (%)
- Diarrhoea, number of occurrences [1]: 1 E
- Diarrhoea, subjects with event [1]: 1 (2.2%) n (%)
- Disturbance in attention, number of occurrences [1]: 1 E
- Disturbance in attention, subjects with event [1]: 1 (2.2%) n (%)
- Dizziness, number of occurrences [1]: 1 E
- Dizziness, subjects with event [1]: 1 (2.2%) n (%)
- Dry mouth, subjects with event [1]: 0 n (%)
- Dry throat, subjects with event [1]: 0 n (%)
- Dysgeusia, number of occurrences [1]: 2 E
- Dysgeusia, subjects with event [1]: 2 (4.3%) n (%)
- Dysmenorrhoea (menstrual cramps), subjects with event [1]: 0 n (%)
- Dyspepsia, subjects with event [1]: 0 n (%)
- Ecchymosis (skin discoloration), number of occurrences [1]: 1 E
- Ecchymosis (skin discoloration), subjects with event [1]: 1 (2.2%) n (%)
- Energy increased, subjects with event [1]: 0 n (%)
- Epistaxis (nosebleed), number of occurrences [1]: 3 E
- Epistaxis (nosebleed), subjects with event [1]: 3 (6.5%) n (%)
- Euphoric mood, number of occurrences [1]: 9 E
- Euphoric mood, subjects with event [1]: 9 (19.6%) n (%)
- Eye disorders, number of occurrences [1]: 9 E
- Eye disorders, subjects with event [1]: 8 (17.4%) n (%)
- Eye irritation, subjects with event [1]: 0 n (%)
- Eye pain, number of occurrences [1]: 1 E
- Eye pain, subjects with event [1]: 1 (2.2%) n (%)
- Fatigue, number of occurrences [1]: 1 E
- Fatigue, subjects with event [1]: 1 (2.2%) n (%)
- Feeling hot, subjects with event [1]: 0 n (%)
- Feeling of relaxation, number of occurrences [1]: 2 E
- Feeling of relaxation, subjects with event [1]: 2 (4.3%) n (%)
- Flushing, subjects with event [1]: 0 n (%)
- Gastrointestinal disorders, number of occurrences [1]: 6 E
- Gastrointestinal disorders, subjects with event [1]: 4 (8.7%) n (%)
- General disorders and administration site conditions, number of occurrences [1]: 7 E
- General disorders and administration site conditions, subjects with event [1]: 6 (13.0%) n (%)
- Haematoma, subjects with event [1]: 0 n (%)
- Head discomfort, number of occurrences [1]: 1 E
- Head discomfort, subjects with event [1]: 1 (2.2%) n (%)
- Headache, number of occurrences [1]: 6 E
- Headache, subjects with event [1]: 5 (10.9%) n (%)
- Hyperhidrosis, number of occurrences [1]: 2 E
- Hyperhidrosis, subjects with event [1]: 2 (4.3%) n (%)
- Hypervigilance, number of occurrences [1]: 6 E
- Hypervigilance, subjects with event [1]: 6 (13.0%) n (%)
- Hypopnoea (shallow breathing), subjects with event [1]: 0 n (%)
- Infections and infestations, subjects with event [1]: 0 n (%)
- Investigations, subjects with event [1]: 0 n (%)
- Irritability, number of occurrences [1]: 1 E
- Irritability, subjects with event [1]: 1 (2.2%) n (%)
- Lacrimation increased, number of occurrences [1]: 8 E
- Lacrimation increased, subjects with event [1]: 8 (17.4%) n (%)
- Metabolism and nutrition disorders, subjects with event [1]: 0 n (%)
- Muscle tightness, subjects with event [1]: 0 n (%)
- Muscle twitching, subjects with event [1]: 0 n (%)
- Musculoskeletal and connective tissue disorders, number of occurrences [1]: 1 E
- Musculoskeletal and connective tissue disorders, subjects with event [1]: 1 (2.2%) n (%)
- Nasal congestion, number of occurrences [1]: 10 E
- Nasal congestion, subjects with event [1]: 10 (21.7%) n (%)
- Nasal discomfort, number of occurrences [1]: 14 E
- Nasal discomfort, subjects with event [1]: 13 (28.3%) n (%)
- Nasal dryness, number of occurrences [1]: 1 E
- Nasal dryness, subjects with event [1]: 1 (2.2%) n (%)
- Nausea, number of occurrences [1]: 2 E
- Nausea, subjects with event [1]: 2 (4.3%) n (%)
- Neck pain, subjects with event [1]: 0 n (%)
- Nervous system disorders, number of occurrences [1]: 12 E
- Nervous system disorders, subjects with event [1]: 11 (23.9%) n (%)
- Obsessive-compulsive disorder, subjects with event [1]: 0 n (%)
- Palpitations, number of occurrences [1]: 2 E
- Palpitations, subjects with event [1]: 2 (4.3%) n (%)
- Peripheral swelling, subjects with event [1]: 0 n (%)
- Pharyngeal hypoaesthesia (numbness of throat), subjects with event [1]: 0 n (%)
- Pharyngitis, subjects with event [1]: 0 n (%)
- Phlebitis superficial, subjects with event [1]: 0 n (%)
- Phonophobia (fear of loud noises), subjects with event [1]: 0 n (%)
- Photophobia, subjects with event [1]: 0 n (%)
- Psychiatric disorders, number of occurrences [1]: 19 E
- Psychiatric disorders, subjects with event [1]: 13 (28.3%) n (%)
- Pyrexia, subjects with event [1]: 0 n (%)
- Reproductive system and breast disorders, subjects with event [1]: 0 n (%)
- Respiratory, thoracic and mediastinal disorders, number of occurrences [1]: 42 E
- Respiratory, thoracic and mediastinal disorders, subjects with event [1]: 25 (54.3%) n (%)
- Restlessness, subjects with event [1]: 0 n (%)
- Rhinorrhoea (runny nose), number of occurrences [1]: 4 E
- Rhinorrhoea (runny nose), subjects with event [1]: 4 (8.7%) n (%)
- Sinus tachycardia, subjects with event [1]: 0 n (%)
- Skin and subcutaneous tissue disorders, number of occurrences [1]: 4 E
- Skin and subcutaneous tissue disorders, subjects with event [1]: 4 (8.7%) n (%)
- Skin erosion, number of occurrences [1]: 1 E
- Skin erosion, subjects with event [1]: 1 (2.2%) n (%)
- Sneezing, number of occurrences [1]: 1 E
- Sneezing, subjects with event [1]: 1 (2.2%) n (%)
- Somnolence, number of occurrences [1]: 1 E
- Somnolence, subjects with event [1]: 1 (2.2%) n (%)
- Tachycardia, subjects with event [1]: 0 n (%)
- Testis discomfort, subjects with event [1]: 0 n (%)
- Throat irritation, number of occurrences [1]: 4 E
- Throat irritation, subjects with event [1]: 3 (6.5%) n (%)
- Upper-airway cough syndrome, number of occurrences [1]: 2 E
- Upper-airway cough syndrome, subjects with event [1]: 2 (4.3%) n (%)
- Vascular disorders, subjects with event [1]: 0 n (%)
- Ventricular extrasystoles, subjects with event [1]: 0 n (%)
- Vessel puncture site bruise, subjects with event [1]: 0 n (%)
- Vessel puncture site pain, subjects with event [1]: 0 n (%)
- Visual impairment, subjects with event [1]: 0 n (%)
- Vomiting, subjects with event [1]: 0 n (%)
